Patent publication US7771956B2, “Method for detecting the presence of a phospholipid” (Brigham & Women's Hospital, Inc., priority 2003, dated 2010)
“Also recorded” adds a separate entry of the source. Blank lines part the entries; values can stand above or below the compound they belong to.

Experiments:
[1] = molecular target: T1, bovine lactadherin (fluorescein-labeled, purified from bovine milk) (Bos taurus, UniProt Q95114); assay: Competition of soluble head group for fluorescein-lactadherin binding to lipospheres (flow cytometry); settings: for inhibition of lactadherin binding: concentrations as high as 0.35 M
T1 construct: from tissue; host or cells: bovine milk
T1 sequence (Q95114 19-427): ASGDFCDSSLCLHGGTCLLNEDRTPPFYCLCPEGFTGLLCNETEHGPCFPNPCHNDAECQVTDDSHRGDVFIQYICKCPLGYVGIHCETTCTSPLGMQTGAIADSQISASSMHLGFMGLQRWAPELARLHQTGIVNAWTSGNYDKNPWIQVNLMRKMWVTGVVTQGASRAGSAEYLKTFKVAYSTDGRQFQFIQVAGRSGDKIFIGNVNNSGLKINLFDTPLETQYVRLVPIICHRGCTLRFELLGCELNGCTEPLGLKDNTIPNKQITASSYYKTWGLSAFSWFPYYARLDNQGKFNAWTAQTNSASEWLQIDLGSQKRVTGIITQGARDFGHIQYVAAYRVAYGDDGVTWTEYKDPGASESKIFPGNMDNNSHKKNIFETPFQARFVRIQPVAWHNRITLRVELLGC
Experimental: Flow Cytometry Phospholipid Binding Assay
Glass microspheres of 1.6 μm nominal diameter (Duke Scientific, Palo Alto, Calif.) were cleaned, size-restricted and covered with a phospholipid bilayer as previously described (Reference 17). Membranes supported by glass microspheres were washed three times in 0.15 M NaCl, 0.02 M Tris-HCl, 0.1% defatted bovine albumin, 10 μM egg PC as sonicated vesicles; stored at 4° C.; and used within 8 hours of synthesis. […] This procedure was performed on 150 μl aliquots with an approximate liposphere concentration of 1×10^6/ml using a Becton Dickinson FACSCalibur flow cytometer. Data acquisition was triggered by forward light scatter with all photomultipliers in the log mode. Noise was reduced during analysis by eliminating events with forward and side scatter values different from those characteristic of the lipospheres. Mean log fluorescence was converted to linear fluorescence for values depicted in the figures. Only experiments in which the fluorescence histogram indicated a log normal distribution, as judged by inspection, were analyzed quantitatively. Flow cytometry experiments were performed in 0.14 M NaCl, 0.02 M Trizma-HCl, 0.1% bovine albumin, pH 7.5 with CaCl2 as specified for individual experiments.
Fluorescein-labeled lactadherin was incubated with 10^6 lipospheres/ml in Tris-buffered saline, 1.5 mM CaCl2, 0.1% BSA for 10 min. prior to evaluation of bound lactadherin by flow cytometry. The final concentrations of lactadherin were varied to estimate the affinity and stoichiometry of bound lactadherin.
To estimate the stereoselective affinity of lactadherin for the L-serine containing head group of Ptd-L-Ser, we performed binding inhibition studies (FIG. 5B).

[2] = molecular target: T1, bovine lactadherin (fluorescein-labeled, purified from bovine milk); assay: Equilibrium binding of fluorescein-labeled lactadherin to lipospheres (membranes on glass microspheres, flow cytometry); settings: for binding of lactadherin: lipospheres with 2% synthetic dioleoyl lipid, 20% PE, balance PC, FIG. 5A
Experimental: (§1) Lactadherin was purified from bovine milk as previously described (Reference 1). Lactadherin, 0.2 mg in 0.2 ml phosphate-buffered saline, was concentrated 10-fold by ultrafiltration with a Centricon YM-10 (Millipore, Bedford, Mass.) followed by dilution to the starting concentration into 0.1 M sodium carbonate buffer, pH 9.0. Fluorescein isothiocyanate (Molecular Probes, Eugene, Oreg.) 6 μl of 10 mg/ml solution in DMSO, was added to lactadherin and the mixture was incubated for one hour at RT in the dark. Free fluorescein was removed by gel filtration using a micro spin column equilibrated with 0.1 M sodium carbonate, 0.1 M betaine, 0.004% Tween-80, pH 9.0 (FluoReporter FITC Protein Labeling Kit, Molecular Probes, Eugene, Oreg.). Fluorescein-labeled lactadherin was concentrated approx. 10-fold by ultrafiltration using a Centricon YM-10, and diluted to approximately the original concentration in 0.15 M NaCl, 50 mM Tris-HCl, pH 7.5. Labeling efficiency was judged by comparison of absorbance at 490 nm to absorbance at 280 nm (correcting for fluorescein absorbance at 280 nm).
Glass microspheres of 1.6 μm nominal diameter (Duke Scientific, Palo Alto, Calif.) were cleaned, size-restricted and covered with a phospholipid bilayer as previously described (Reference 17). Membranes supported by glass microspheres were washed three times in 0.15 M NaCl, 0.02 M Tris-HCl, 0.1% defatted bovine albumin, 10 μM egg PC as sonicated vesicles; stored at 4° C.; and used within 8 hours of synthesis. Fluorescein-labeled factor VIII (4 nM) was incubated with lactadherin or annexin V for 15 min at room temperature, the mixture was added to lipospheres for an additional 10 minutes, and membrane-bound fVIII was measured by flow cytometry. This procedure was performed on 150 μl aliquots with an approximate liposphere concentration of 1×10^6/ml using a Becton Dickinson FACSCalibur flow cytometer. Data acquisition was triggered by forward light scatter with all photomultipliers in the log mode. […] Mean log fluorescence was converted to linear fluorescence for values depicted in the figures. Only experiments in which the fluorescence histogram indicated a log normal distribution, as judged by inspection, were analyzed quantitatively. […]
The equilibrium binding of lactadherin to lipospheres was fitted by non-linear, least squares data analysis using the standard binding model (assuming a single class of binding sites and that the fraction of bound lactadherin was small at each concentration evaluated). […]
Fluorescein-labeled lactadherin interacted with phospholipid bilayers supported by glass microspheres (lipospheres). […] After 10 minutes, we measured bound lactadherin using flow cytometry (FIG. 1A). […]

[3] = molecular target: T1, bovine lactadherin (fluorescein-labeled, purified from bovine milk); assay: Competition of phospholipid vesicles with lipospheres for fluorescein-labeled lactadherin; format: binding; settings: for effect on number of binding sites or affinity for lactadherin: extruded vesicles, 0-20% PE, 1% Ptd-L-Ser; for support of lactadherin binding: vesicles lacking Ptd-L-Ser, FIG. 4B
Experimental: as §1
Phospholipid vesicles were prepared by evaporating chloroform from the desired phospholipids, resuspending in methylene chloride and re-evaporating twice under argon. Large multilamellar vesicles were prepared by gently swirling tris-buffered saline (50 mM Tris, 150 mM NaCl, pH 7.4) over the dried lipid suspension until all lipid was suspended. Some of the large multilamellar vesicles were then utilized to prepare small unilamellar vesicles by sonication in a high intensity bath sonicator (Laboratory Supplies, Inc. Hicksville, N.Y.) under argon until visually clear (approx. 20 min.). Large unilamellar vesicles were made by extruding large multilamellar vesicle suspensions 20 times through […] polycarbonate membranes (Millipore, Bedford, Mass.) in a High Pressure Extrusion Device (Sciema Technical Services, Vancouver, BC, Canada) under argon as described previously (Reference 39). Phospholipid concentration was determined by phosphorus assay (Reference 40). Vesicles were used fresh, or 1 ml aliquots were quick-frozen in liquid nitrogen, stored at −80° C., and thawed at 37° C.
Glass microspheres of 1.6 μm nominal diameter (Duke Scientific, Palo Alto, Calif.) were cleaned, size-restricted and covered with a phospholipid bilayer as previously described (Reference 17). Membranes supported by glass microspheres were washed three times in 0.15 M NaCl, 0.02 M Tris-HCl, 0.1% defatted bovine albumin, 10 μM egg PC as sonicated vesicles; stored at 4° C.; and used within 8 hours of synthesis. Fluorescein-labeled factor VIII (4 nM) was incubated with lactadherin or annexin V for 15 min at room temperature, the mixture was added to lipospheres for an additional 10 minutes, and membrane-bound fVIII was measured by flow cytometry. This procedure was performed on 150 μl aliquots with an approximate liposphere concentration of 1×10^6/ml using a Becton Dickinson FACSCalibur flow cytometer. Data acquisition was triggered by forward light scatter with all photomultipliers in the log mode. Noise was reduced during analysis by eliminating events with forward and side scatter values different from those characteristic of the lipospheres. Mean log fluorescence was converted to linear fluorescence for values depicted in the figures. Only experiments in which the fluorescence histogram indicated a log normal distribution, as judged by inspection, were analyzed quantitatively. […]

platelets [4] = assay: Loss of NBD-PS fluorescence from stimulated platelets (PS exposure); format: cell-based; settings: 10 μM A23187, 8 min
Source text: In order to estimate the rate and extent of PS exposure on the platelet plasma membrane we utilized fluorescence-labeled PS (Reference 62). Prior reports indicate that platelets translocate NBD-PS to the inner leaflet of the plasma membrane, like unlabeled PS. When stimulated platelets transfer NBD-PS to the outer leaflet of the plasma membrane it is rapidly exchanged into delipidated albumin that is present in the buffer. Thus, translocation of NBD-PS to the outer plasma membrane causes a net loss in cell fluorescence. NBD-PS was loaded into membranes of resting platelets from donor vesicles prior to platelet purification. The rate and extent of platelet fluorescence loss provide an estimate of the rate and extent of plasma membrane PS exposure.
During the first minute after addition of TRAP the fluorescence loss was 12±1.8% vs. 5±2.5% for control platelets. Stimulation with 10 μM A23187 led to the same rate of fluorescence loss during the first minute but the rate was maintained so that after 8 min. >90% of NBD fluorescence was lost (FIG. 12B inset).

platelets [5] = assay: Lactadherin binding to A23187-stimulated platelets (flow cytometry); format: cell-based; settings: Platelet; 0.25 μM A23187 vs. unstimulated platelets; read-out: net increase of fluorescence (bound lactadherin)
Experimental: We asked whether platelets have a stimulated state when they bind lactadherin but not annexin V, consistent with the hypothesis that platelets have the capacity to regulate PS exposure at a level less than 2.5% PS (FIG. 8A-C). Platelets were incubated with fluorescein labeled lactadherin and Alexa Fluor 647 labeled annexin V. Because competition of either protein for the other's binding sites was <20% at these concentrations (FIG. 7C, 7D) we utilized both proteins simultaneously. The gain on the flow cytometer was set so that the intrinsic fluorescence of unstimulated platelets placed the population in the lower left quadrant of the display (FIG. 8A). […] Comparison with the unstimulated state indicates a net increase of fluorescence to approximately 3-fold. (FIG. 8B). The cross-hair allows comparison of modal fluorescence values for resting platelets vs. stimulated platelets.

[6] = molecular target: T2, Recombinant human factor VIII (Homo sapiens, UniProt P00451); assay: Binding of factor VIII to lipospheres; settings: lipospheres containing 4% Ptd-L-Ser; read-out: dissociation constant of factor VIII for lipospheres
T2 construct: Gift from D. Pittman, Genetics Institute, Cambridge, Mass
Source text: Human factor V was obtained from Haematologic Technologies Inc. (Burlington, Vt.). Recombinant human factor VIII was a gift from D. Pittman of Genetics Institute, Cambridge, Mass. Bovine brain phosphatidylserine (Ptd-L-Ser), egg yolk phosphatidylethanolamine (PE), bovine liver phosphatidylinositol, egg sphingomyelin, egg phosphatidylcholine (PC) and dioleoyl PC were obtained from Avanti Polar Lipids (Alabaster, AL). Phospholipase D from streptomyces, phospho-L-serine phospho-D-serine, L-serine and D-serine were obtained from Sigma.
Factor VIII and factor V were labeled with fluorescein maleimide (Molecular Probes, Eugene, Oreg.) as previously described (References 17 and 37). Protein concentration of factor VIII was determined using a Micro-BCA Assay (Pierce, Rockford, Ill.) using bovine albumin as a standard.
Glass microspheres of 1.6 μm nominal diameter (Duke Scientific, Palo Alto, Calif.) were cleaned, size-restricted and covered with a phospholipid bilayer as previously described (Reference 17). […] Fluorescein-labeled factor VIII (4 nM) was incubated with lactadherin or annexin V for 15 min at room temperature, the mixture was added to lipospheres for an additional 10 minutes, and membrane-bound fVIII was measured by flow cytometry. […] Mean log fluorescence was converted to linear fluorescence for values depicted in the figures. […]

T2 sequence (P00451 20-2351): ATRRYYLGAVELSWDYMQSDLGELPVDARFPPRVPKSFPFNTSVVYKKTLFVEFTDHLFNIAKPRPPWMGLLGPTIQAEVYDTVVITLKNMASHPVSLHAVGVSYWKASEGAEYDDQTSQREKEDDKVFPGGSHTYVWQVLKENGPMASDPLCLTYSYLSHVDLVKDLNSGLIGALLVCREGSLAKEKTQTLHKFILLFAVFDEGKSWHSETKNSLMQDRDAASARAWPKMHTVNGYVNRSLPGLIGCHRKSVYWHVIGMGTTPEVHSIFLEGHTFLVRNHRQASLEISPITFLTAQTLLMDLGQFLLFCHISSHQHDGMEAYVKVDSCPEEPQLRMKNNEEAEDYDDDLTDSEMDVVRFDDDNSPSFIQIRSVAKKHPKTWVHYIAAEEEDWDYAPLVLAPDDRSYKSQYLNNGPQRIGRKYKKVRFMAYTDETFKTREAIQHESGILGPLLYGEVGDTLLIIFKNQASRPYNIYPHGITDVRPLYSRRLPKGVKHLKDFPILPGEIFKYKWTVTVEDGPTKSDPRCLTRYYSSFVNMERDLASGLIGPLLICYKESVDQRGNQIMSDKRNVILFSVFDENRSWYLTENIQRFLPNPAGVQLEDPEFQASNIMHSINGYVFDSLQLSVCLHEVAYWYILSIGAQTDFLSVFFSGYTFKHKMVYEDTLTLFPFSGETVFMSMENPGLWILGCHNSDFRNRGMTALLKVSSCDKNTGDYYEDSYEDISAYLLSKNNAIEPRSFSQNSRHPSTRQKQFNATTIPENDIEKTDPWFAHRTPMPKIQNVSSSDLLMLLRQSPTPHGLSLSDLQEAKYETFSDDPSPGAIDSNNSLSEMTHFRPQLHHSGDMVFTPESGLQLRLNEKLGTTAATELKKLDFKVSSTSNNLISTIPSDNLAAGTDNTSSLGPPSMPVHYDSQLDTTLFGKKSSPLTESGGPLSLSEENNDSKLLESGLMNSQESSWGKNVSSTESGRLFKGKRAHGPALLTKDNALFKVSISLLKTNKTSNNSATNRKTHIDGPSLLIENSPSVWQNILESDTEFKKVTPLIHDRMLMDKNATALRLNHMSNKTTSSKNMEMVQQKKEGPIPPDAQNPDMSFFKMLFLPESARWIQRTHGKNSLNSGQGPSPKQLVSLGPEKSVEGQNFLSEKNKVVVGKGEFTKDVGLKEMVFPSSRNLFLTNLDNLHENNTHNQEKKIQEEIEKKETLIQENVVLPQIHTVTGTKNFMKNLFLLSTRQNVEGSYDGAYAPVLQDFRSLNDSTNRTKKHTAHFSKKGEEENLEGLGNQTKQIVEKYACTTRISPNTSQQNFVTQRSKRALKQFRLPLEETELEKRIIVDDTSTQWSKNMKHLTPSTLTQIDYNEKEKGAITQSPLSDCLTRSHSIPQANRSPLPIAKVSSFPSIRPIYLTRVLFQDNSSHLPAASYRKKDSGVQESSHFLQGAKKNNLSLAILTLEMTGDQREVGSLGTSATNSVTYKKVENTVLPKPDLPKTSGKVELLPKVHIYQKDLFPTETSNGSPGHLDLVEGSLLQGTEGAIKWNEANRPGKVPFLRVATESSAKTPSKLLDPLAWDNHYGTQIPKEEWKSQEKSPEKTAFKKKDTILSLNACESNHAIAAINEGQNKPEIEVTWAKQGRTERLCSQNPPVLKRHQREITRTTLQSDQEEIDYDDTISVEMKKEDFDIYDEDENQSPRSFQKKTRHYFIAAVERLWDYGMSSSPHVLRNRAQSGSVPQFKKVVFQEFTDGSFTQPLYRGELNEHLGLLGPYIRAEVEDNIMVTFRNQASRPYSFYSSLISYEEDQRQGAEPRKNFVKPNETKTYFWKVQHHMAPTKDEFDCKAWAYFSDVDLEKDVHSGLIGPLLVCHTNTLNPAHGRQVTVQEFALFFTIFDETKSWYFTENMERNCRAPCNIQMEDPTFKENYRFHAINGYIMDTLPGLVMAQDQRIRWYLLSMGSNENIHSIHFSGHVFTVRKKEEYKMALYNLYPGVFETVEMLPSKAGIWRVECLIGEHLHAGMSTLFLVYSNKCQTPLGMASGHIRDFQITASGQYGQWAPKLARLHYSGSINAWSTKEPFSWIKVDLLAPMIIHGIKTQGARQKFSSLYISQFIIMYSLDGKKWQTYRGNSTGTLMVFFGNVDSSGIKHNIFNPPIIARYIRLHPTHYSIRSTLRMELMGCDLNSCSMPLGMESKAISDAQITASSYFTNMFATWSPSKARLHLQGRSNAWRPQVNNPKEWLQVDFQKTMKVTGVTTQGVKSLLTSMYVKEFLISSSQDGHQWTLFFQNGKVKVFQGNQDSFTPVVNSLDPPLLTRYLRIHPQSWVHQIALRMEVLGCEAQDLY

Compound: N[C@H](COP(=O)(O)O)C(=O)O [phospho-D-serine]
- inhibition of lactadherin binding [1]: ≤ 25%
- fold less effective as an inhibitor (vs. phospho-L-serine) ([1]; inhibition of lactadherin binding to lipospheres): at least 4 fold

Compound: CCCCCCCC/C=C\CCCCCCCC(=O)OC[C@H](COP(=O)(O)OC[C@@H](N)C(=O)O)OC(=O)CCCCCCC/C=C\CCCCCCCC [dioleoyl Ptd-D-Ser]
- binding of lactadherin ([2]; listed as Ptd-D-Ser): did not support binding of lactadherin above the level supported by control membranes of PE:PC 20:80

Compound: phosphatidylethanolamine [PE]
- effect on number of binding sites or affinity for lactadherin [3]: did not influence the apparent number of binding sites or affinity for lactadherin
- effect on number of binding sites or affinity for lactadherin ([3]; listed as phosphatidylethanolamine): did not enhance the apparent affinity or number of lactadherin binding sites

Compound: phosphatidylinositol
- support of lactadherin binding [3]: does not support high affinity binding of lactadherin; also recorded: supported low affinity binding of lactadherin

Compound: phosphatidylcholine [PC]
- support of lactadherin binding [3]: supported low affinity lactadherin binding

- inhibition of lactadherin binding [1]: ≤ 25%
Compound: phosphate

Compound: CNc1ccc2oc(C[C@H]3O[C@@]4(CC[C@H]3C)O[C@H]([C@H](C)C(=O)c3ccc[nH]3)[C@H](C)C[C@H]4C)nc2c1C(=O)O [A23187]
- NBD fluorescence lost (platelets [4]): > 90%
- fold induction at 0.25 µM (platelets [5]): ~3

Compound: CCCCCCCC/C=C\CCCCCCCC(=O)OC[C@H](COP(=O)(O)OC[C@H](N)C(=O)O)OC(=O)CCCCCCC/C=C\CCCCCCCC [dioleoyl Ptd-L-Ser]
- binding of lactadherin [2]: Lactadherin bound to membranes; also recorded: bound lactadherin with high affinity, comparable to Ptd-L-Ser from biologic sources

- Kd [6]: 4.8 nM
- Kd ([3]; sonicated vesicles of 16% Ptd-L-Ser, n<60, read-out: KD (lower limit)): > 0.2 nM
- apparent KD, 1% Ptd-L-Ser vs. 4% Ptd-L-Ser membranes (fold difference) ([2]; lipospheres of 1% vs. 4% Ptd-L-Ser): ≤ 2 fold
- Kd ([2]; membranes Ptd-L-Ser:PE:PC 4:20:76 on glass microspheres, 10 min, read-out: KD (apparent)): 3.3 ± 0.4 nM
Compound: phosphatidylserine [Ptd-L-Ser]
